According to patent publication US6509153B1, “Genetic markers of toxicity preparation and uses” (Exonhit Therapeutics SA, priority 1999, dated 2003):
Structures can show the parent of a compound that is named as a salt.

Tests used:
[1] = cell viability test (MTT) used to calculate the IC80 concentration; format: cell-based; conditions: human, HepG2 cells, read-out: Concentration (corresponds to an IC80, MTT); for IC80 at 4 h: exposure time 4 h
Excerpt: (§1) HepG2 cells are then individually treated with different compounds with different levels of toxicity.

[2] = system: HepG2 cells; test: hybridization of probes from treated HepG2 cells on p53 apoptosis filter (toxicity index); format: cell-based; conditions: HepG2 cells treated at IC80 concentration, compared with aspirin
Excerpt: as §1

| Compound | IC80 at 18 h ([1]; exposure time 18 h) | other results |
| --- | --- | --- |
| CC(=O)Oc1ccccc1C(=O)O [Aspirin] | 2000 µM | – |
| CC[C@@]1(O)C(=O)OCc2c1cc1n(c2=O)Cc2cc3ccccc3nc2-1 [Camptothecin] | – | IC80 at 4 h [1]: 1 µg/mL |
| Clc1cccc(Cl)c1N=C1NCCN1 [Clonidine] | 150 µM | – |
| C[C@@H]1C[C@@H]([C@H](O)CC2CC(=O)NC(=O)C2)C(=O)[C@@H](C)C1 [Cycloheximide] | 5 µg/mL | – |
| O=C(O)Cc1ccccc1Nc1c(Cl)cccc1Cl [Diclofenac] | 50 µg/mL | splicing events identical to those induced by p53-related toxicity (toxicity index ranking) [2]: generates more splicing events identical to those induced by p53 -related toxicity than aspirin |
| CNC[C@H](O)c1ccc(O)c(O)c1 [Epinephrine Hydrate] | 50 µg/mL | – |
| CC[C@H]1OC(=O)[C@H](C)[C@@H](O[C@H]2C[C@@](C)(OC)[C@@H](O)[C@H](C)O2)[C@H](C)[C@@H](O[C@@H]2O[C@H](C)C[C@H](N(C)C)[C@H]2O)[C@](C)(O)C[C@@H](C)C(=O)[C@H](C)[C@@H](O)[C@]1(C)O [Erythromycin] | 2.5 µg/mL | – |
| CCO [Ethanol] | – | IC80 at 4 h [1]: 100000 µM |
| COc1cc([C@@H]2c3cc4c(cc3[C@@H](O[C@@H]3O[C@@H]5CO[C@@H](C)O[C@H]5[C@H](O)[C@H]3O)[C@H]3COC(=O)[C@H]23)OCO4)cc(OC)c1O [Etoposide] | 50 µg/mL | – |
| CN(Cc1cnc2nc(N)nc(N)c2n1)c1ccc(C(=O)N[C@@H](CCC(=O)O)C(=O)O)cc1 [Methotrexate] | 0.5 µM | – |
| CC(=O)Nc1ccc(O)cc1 [Paracetamol] | 1000 µM | – |
| CN[C@@H]1C[C@H]2O[C@@](C)([C@@H]1OC)n1c3ccccc3c3c4c(c5c6ccccc6n2c5c31)C(=O)NC4 [Staurosporine] | – | IC80 ([1]; exposure time 18 h): 0.05 µM |
| CC(C)(C)NCC(O)c1cc(O)cc(O)c1 (stereo not shown) [Terbutaline Sulfate] | 0.2 µg/mL | – |
| CC(C)[C@@H]1NC(=O)[C@H](C)OC(=O)[C@@H](C(C)C)NC(=O)[C@@H](C(C)C)OC(=O)[C@H](C(C)C)NC(=O)[C@H](C)OC(=O)[C@@H](C(C)C)NC(=O)[C@@H](C(C)C)OC(=O)[C@H](C(C)C)NC(=O)[C@H](C)OC(=O)[C@@H](C(C)C)NC(=O)[C@@H](C(C)C)OC1=O [Valinomycin] | 0.015 µM | – |
| CC[C@]1(O)C[C@@H]2CN(CCc3c([nH]c4ccccc34)[C@@](C(=O)OC)(c3cc4c(cc3OC)N(C)[C@H]3[C@@](O)(C(=O)OC)[C@H](OC(C)=O)[C@]5(CC)C=CCN6CC[C@]43[C@@H]65)C2)C1 [Vinblastine Sulfate] | 30 µM | – |
